For orientation: solubility means the dissolved amount per volume that the medium holds. The Solubility is the dissolved amount per volume that the medium holds. Usually AUC stands for the area under the concentration-time curve, a measure of exposure. Low readings indicate less exposure, high ones more exposure. A word on the Cmax: it is the maximum level reached in the sampled fluid or tissue.

Each structure is given as a SMILES string. ≈ marks a conversion by molar mass, not a printed value.

Data on 1 compound can be found in EP4755375A1, “PHARMACEUTICAL COMPOSITION CONTAINING SUBSTITUTED INDOL-5-OL DERIVATIVE AND USE THEREOF” (Changshan Conjuchem Biopharmaceutical Research and …, priority 2023, dated 2025).

The nature of series [1]: Saturated solubility of API in different solvents/media. Type of series: physicochemical. To be noted: for solubility at 24 h: organic solvent or mixture, thermodynamic from solid, room temperature. The procedure: The saturated solubility of the compound of the present invention in different solvents/media is shown in Table 1 (Test method: An appropriate excess amount of API was placed in an appropriate amount of solvent and shaken at room temperature for 24 hours, after which the sample solution was processed and analyzed). Among them, methanol and acetone are the optimal choices. Table 1 Saturated Solubility of the Compound of the Present Invention in Different Solvents/Media

Series [2] can be described thus: Solubility of API in solvent combinations (visual dissolution). Type of series: physicochemical. As to conditions: organic solvent combinations of Table 2, organic solvent or mixture, thermodynamic from solid; solvent combinations of Table 2 (acetone/methanol, acetone/ethanol, with water or dichloromethane); read-out: solubility of API in the solvent combinations listed in Table 2. Here is the method: The solvent compositions capable of simultaneously dissolving the compound of the present invention and the carrier materials are shown in Table 2. The detection method for the solubility of API in different solvent combinations is as follows: Weigh 20 mg of the compound of the present invention and add it to 4 mL of different solvents or solvent combinations, respectively. Gently shake and observe the dissolution phenomenon. If complete dissolution occurs, add a small amount of additional API to the above solution, continue shaking, and observe the dissolution phenomenon. […] All carrier materials listed in Table 2 are soluble in the selected solvents or solvent combinations. Table 2 Solvent Compositions Capable of Simultaneously Dissolving the Compound of the Present Invention and the Carrier

Series [3] can be described thus: Solubility testing of solid dispersions in media with different pH values (shaker, 24 hours). Type of series: physicochemical. To be noted: 0.1mol/L HCl. Here is the method: Weigh an amount of powder (equivalent to 50 mg of API) from Examples 1-7 into a 10-mL vial, add 5 mL of media with different pH values, so that the theoretical concentration of API in the sample solution was about 10 mg/mL. Shake the vials in a shaker for 24 hours, and determine the solubility. During shaking, observe the dissolution phenomenon of the powder in the solution. If the solution becomes clear, add an additional amount of sample powder. Table 4 Solubility of Solid Dispersions Prepared Using Povidone in Different Media
Weigh an amount of powder (equivalent to 50 mg of API) from Examples 9-13 into a 10-mL vial, add a corresponding volume of media with different pH values, so that the theoretical concentration of API in the solution was about 10 mg/mL (the theoretical concentration of API in the sample solution of Example 13 was about 5 mg/mL). Shake the vials in a shaker for 24 hours, and sample at 4 h and 24 h to determine the solubility. During shaking, observe the dissolution phenomenon of the powder in the solution. If the solution becomes clear, add an additional amount of sample powder. Table 7 Solubility of Solid Dispersions Prepared Using HPMC in Different Media
Weigh an amount of powder (equivalent to 50 mg of API) from Examples 14-16 into a 10-mL vial, add a corresponding volume of media with different pH values, so that the theoretical concentration of API in the sample solution was about 10 mg/mL. Shake the vials in a shaker for 24 hours, and sample at 4 h and 24 h to determine the solubility. During shaking, observe the dissolution phenomenon of the powder in the solution. If the solution becomes clear, add an additional amount of sample powder. Table 9 Solubility of Solid Dispersions Prepared Using HPC in Different Media
Weigh an amount of powder (equivalent to 50 mg of API) from Examples 17-21 into a 10-mL vial, add a corresponding volume of media with different pH values, so that the theoretical concentration of API in the sample solution was about 10 mg/mL. Shake the vials in a shaker for 24 hours, and sample at 4 h and 24 h to determine the solubility. During shaking, observe the dissolution phenomenon of the powder in the solution. If the solution becomes clear, add an additional amount of sample powder. Table 11 Solubility of Solid Dispersions Prepared Using Copovidone S630 in Different Media
Weigh an amount of powder (equivalent to 50 mg of API) from Examples 22-24 into a 10-mL vial, add a corresponding volume of media with different pH values, so that the theoretical concentration of API in the sample solution was about 10 mg/mL. Shake the vials in a shaker for 24 hours, and sample at 4 h and 24 h to determine solubility. Table 13 Solubility of Solid Dispersions Prepared Using HPMC AS in Different Media
Weigh an amount of powder(equivalent to 50 mg of API) from Examples 25-28 into a 10 mL vial, add a corresponding volume of media with different pH values, so that the theoretical concentration of API in the sample solution was about 10 mg/mL. Shake the vials in a shaker for 24 hours, and sample at 4 h and 24 h to determine the solubility. During shaking, observe the dissolution phenomenon of the powder in the solution. If the solution becomes clear, add an additional amount of sample powder. Table 15 Solubility of Solid Dispersions Prepared Using Polyethylene Glycol in Different Media […]

Series [4] in a line: Dog PK: bioavailability of solid dispersions and API. As to conditions: plasma, beagle dogs (male, fasted), oral, dose 5 mg/kg. Type of series: in vivo. The procedure:
Based on the solubility data from the solid dispersion formulation examples above, the API (administration form: 10 mg/mL suspension, API suspended in 0.5% CMC-Na solution) and solid dispersions prepared using PVP K30 (drug-excipient ratios of 1:3 and 1:4, respectively) were selected for dog PK experiments. The solid dispersions were filled into hard capsules and orally administered to beagle dogs (male, fasted, 3 dogs per group) at a dose of 5 mg/kg. Whole blood samples of 0.3 mL were collected at 0 min, 10 min, 15 min, 30 min, 1 h, 2 h, 3 h, 4 h, 6 h, 8 h, 12 h, and 24 h after administration. The blood samples were placed in anticoagulant tubes, gently inverted several times, and then kept on wet ice in preparation for centrifugation. Within 30 minutes after collection, the samples were centrifuged at about 2000 × g (force) at 4°C for 10 minutes to obtain plasma. The resulting plasma samples were immediately divided into two aliquots (about 75 µL each) and transferred to cryovials. The samples were maintained on wet ice throughout the processing and stored in a freezer at -75 ± 15°C until analysis. The concentrations of the test substance in the plasma samples were analyzed using an LC-MS/MS method. Table 50 Summary of Dog PK Data for SDD Formulations

Series [5] is described as follows: Dog PK experiment for tablets. Type of series: in vivo. To be noted: plasma, beagle dogs (male, fasted), oral, dose 5 mg/kg. The procedure:
Example 59 and Example 60 were orally administered to beagle dogs (male, fasted, 3 dogs per group) at a dose of about 5 mg/kg. Example 65 was orally administered to beagle dogs (half male and half female, fasted, 8 dogs) at a dose of 50 mg/animal (about 5 mg/kg). Whole blood samples of 0.3 mL were collected at 0 min, 10 min, 15 min, 30 min, 1 h, 2 h, 3 h, 4 h, 6 h, 8 h, 12 h, and 24 h after administration. The blood samples were placed in anticoagulant tubes, gently inverted several times, and then kept on wet ice in preparation for centrifugation. Within 30 minutes after collection, the samples were centrifuged at about 2000 × g (force) at 4°C for 10 minutes to obtain plasma. The resulting plasma samples were immediately divided into two aliquots (about 75 µL each) and transferred to cryovials. The samples were maintained on wet ice throughout the processing and stored in a freezer at -75 ± 15°C until analysis. The concentrations of the test substance in the plasma samples were analyzed using an LC-MS/MS method. Table 51 Summary of Dog PK Data for Tablets

`C/C=C/c1cc(Nc2cc(N3CCN(C)CC3)nc(Oc3cc(F)c4[nH]c(C)cc4c3F)n2)n[nH]1` [API]: the “Solubility Description” value in series [1] (Acetone), in series [1] (Acetonitrile), in series [1] (Ethanol), in series [1] (Ethyl acetate), in series [1] (Isopropanol) and in series [1] (Methanol) was “Slightly soluble” in each case. In addition, the “Solubility Description” value in series [1] (Propylene glycol) is on record as “Slightly soluble”. The solubility at 24 h in series [1] (Acetone) is 5990 µg/mL (≈ 12.5 mM); in series [1] (Acetonitrile), 1220 µg/mL (≈ 2.54 mM); in series [1] (Ethanol) it was 5170 µg/mL (≈ 10.8 mM); in series [1] (Ethyl acetate), 4980 µg/mL (≈ 10.4 mM); in series [1] (Isopropanol) it was 2340 µg/mL (≈ 4.87 mM); in series [1] (Methanol), 8360 µg/mL (≈ 17.4 mM). The solubility at 24 h in series [1] (Propylene glycol) was 2220 µg/mL (≈ 4.62 mM); in series [3] (simulated gastric fluid, thermodynamic from solid, 24h, sample Supersaturated) it was 50 µg/mL (≈ 0.104 mM). The Solubility in series [2] is more than 5000 µg/mL; in series [3] (4h, API alone, sample concentration not given) it was 50 µg/mL (≈ 0.104 mM); in series [3] (24h, API alone, sample concentration not given) it was 50 µg/mL (≈ 0.104 mM). Also, the solubility at 2 h in series [3] (simulated gastric fluid, thermodynamic from solid, 2h, API alone, sample concentration not given) is 50 µg/mL (≈ 0.104 mM). In addition, the solubility at 4 h in series [3] (simulated gastric fluid, thermodynamic from solid, 4h, sample Supersaturated) is 50 µg/mL (≈ 0.104 mM). Moreover, the AUC in series [4] and in series [5] was 59 ng·h/mL in each case. In addition, the Cmax in series [4] and in series [5] was 22 ng/mL each time.
